Measurements reported in PubChem BioAssay (NCI).
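A five-concentration, 48-hour dose response in 96-well plates underlies each endpoint, interpolated linearly between surrounding concentrations. GI50: concentration for 50% inhibition of growth. The concentration for full growth arrest is given as TGI.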

Key:
Assay in all cases: inhibition of tumour cell growth, NCI panel, 48 h
[1] = system: 786-0 renal
[2] = system: A498 renal
[3] = system: A549 NSCLC
[4] = system: ACHN renal
[5] = system: BT-549 breast
[6] = system: CAKI-1 renal
[7] = system: CCRF-CEM leukemia
[8] = system: COLO 205 colon
[9] = system: DU-145 prostate
[10] = system: EKVX NSCLC
[11] = system: HCC-2998 colon
[12] = system: HCT-116 colon
[13] = system: HCT-15 colon
[14] = system: HL-60(TB) leukemia
[15] = system: HOP-62 NSCLC
[16] = system: HOP-92 NSCLC
[17] = system: HS 578T breast
[18] = system: HT29 colon
[19] = system: IGROV1 ovarian
[20] = system: K-562 leukemia
[21] = system: KM12 colon
[22] = system: LOX IMVI melanoma
[23] = system: M14 melanoma
[24] = system: MALME-3M melanoma
[25] = system: MCF7 breast
[26] = system: MDA-MB-231 breast
[27] = system: MDA-MB-435
[28] = system: MDA-MB-468 breast
[29] = system: MOLT-4 leukemia
[30] = system: NCI-H226 lung
[31] = system: NCI-H23 lung
[32] = system: NCI-H460 lung
[33] = system: NCI-H522 lung
[34] = system: NCI/ADR-RES ovarian
[35] = system: OVCAR-3 ovarian
[36] = system: OVCAR-4 ovarian
[37] = system: OVCAR-5 ovarian
[38] = system: OVCAR-8 ovarian
[39] = system: PC-3 prostate
[40] = system: RPMI-8226 leukemia
[41] = system: RXF 393 renal
[42] = system: SF-268 CNS
[43] = system: SF-295 CNS
[44] = system: SF-539 CNS
[45] = system: SK-MEL-2 melanoma
[46] = system: SK-MEL-28 melanoma
[47] = system: SK-MEL-5 melanoma
[48] = system: SK-OV-3 ovarian
[49] = system: SN12C renal
[50] = system: SNB-19 CNS
[51] = system: SNB-75 CNS
[52] = system: SR leukemia
[53] = system: SW-620 colon
[54] = system: T-47D breast
[55] = system: TK-10 renal
[56] = system: U251 CNS
[57] = system: UACC-257 melanoma
[58] = system: UACC-62 melanoma
[59] = system: UO-31 renal

Cc1ccc(-c2nc3ccc(C(=O)N=Nc4c(O)[nH]c5ccc(Cl)cc45)cc3[nH]2)cc1
GI50 [1]: 20.9 µM | TGI [1]: 65.4 µM | GI50 [2]: > 100 µM | TGI [2]: > 100 µM | GI50 [3]: 56.8 µM | TGI [3]: > 100 µM | GI50 [4]: > 100 µM | TGI [4]: > 100 µM | GI50 [5]: 96.3 µM | TGI [5]: > 100 µM | GI50 [6]: > 100 µM | TGI [6]: > 100 µM | GI50 [7]: 5.77 µM | TGI [7]: > 100 µM | GI50 [8]: 24.6 µM | TGI [8]: > 100 µM | GI50 [9]: 5.57 µM | TGI [9]: 88.4 µM | GI50 [10]: > 100 µM | TGI [10]: > 100 µM | GI50 [11]: 18.7 µM | TGI [11]: > 100 µM | GI50 [12]: 16 µM | TGI [12]: > 100 µM | GI50 [13]: > 100 µM | TGI [13]: > 100 µM | GI50 [14]: > 100 µM | TGI [14]: > 100 µM | GI50 [15]: 78.4 µM | TGI [15]: > 100 µM | GI50 [16]: 72.6 µM | TGI [16]: > 100 µM | GI50 [17]: 31.2 µM | TGI [17]: > 100 µM | GI50 [18]: 17.6 µM | TGI [18]: > 100 µM | GI50 [19]: 81.9 µM | TGI [19]: > 100 µM | GI50 [20]: 8.85 µM | TGI [20]: > 100 µM | GI50 [21]: > 100 µM | TGI [21]: > 100 µM | GI50 [22]: 4.81 µM | TGI [22]: 18.9 µM | GI50 [23]: 57.8 µM | TGI [23]: > 100 µM | GI50 [24]: 15.6 µM | TGI [24]: 43.8 µM | GI50 [25]: 5.03 µM | TGI [25]: 47.4 µM | GI50 [26]: 10.7 µM | TGI [26]: 40.3 µM | GI50 [27]: 10.1 µM | TGI [27]: 94.9 µM | GI50 [28]: 5.28 µM | TGI [28]: 21.8 µM | GI50 [29]: 4.12 µM | TGI [29]: > 100 µM | GI50 [30]: > 100 µM | TGI [30]: > 100 µM | GI50 [31]: 6.63 µM | TGI [31]: 28.9 µM | GI50 [32]: 8.67 µM | TGI [32]: > 100 µM | GI50 [33]: 4.3 µM | TGI [33]: 21.3 µM | GI50 [34]: > 100 µM | TGI [34]: > 100 µM | GI50 [35]: 7.29 µM | TGI [35]: 74.4 µM | GI50 [36]: 15 µM | TGI [36]: 51.3 µM | GI50 [37]: 25.5 µM | TGI [37]: > 100 µM | GI50 [38]: > 100 µM | TGI [38]: > 100 µM | GI50 [39]: 13.4 µM | TGI [39]: 39.2 µM | GI50 [40]: 67.7 µM | TGI [40]: > 100 µM | GI50 [41]: > 100 µM | TGI [41]: > 100 µM | GI50 [42]: 24.2 µM | TGI [42]: > 100 µM | GI50 [43]: > 100 µM | TGI [43]: > 100 µM | GI50 [44]: > 100 µM | TGI [44]: > 100 µM | GI50 [45]: > 100 µM | TGI [45]: > 100 µM | GI50 [46]: 36.1 µM | TGI [46]: > 100 µM | GI50 [47]: > 100 µM | TGI [47]: > 100 µM | GI50 [48]: > 100 µM | TGI [48]: > 100 µM | GI50 [49]: 38.9 µM | TGI [49]: > 100 µM | GI50 [50]: 30.1 µM | TGI [50]: > 100 µM | GI50 [51]: 66.5 µM | TGI [51]: > 100 µM | GI50 [52]: > 100 µM | TGI [52]: > 100 µM | GI50 [53]: 3.3 µM | TGI [53]: 26 µM | GI50 [54]: 44.5 µM | TGI [54]: > 100 µM | GI50 [55]: > 100 µM | TGI [55]: > 100 µM | GI50 [56]: 25.3 µM | TGI [56]: > 100 µM | GI50 [57]: > 100 µM | TGI [57]: > 100 µM | GI50 [58]: > 100 µM | TGI [58]: > 100 µM | GI50 [59]: > 100 µM | TGI [59]: > 100 µM
